PubChem BioAssay AID330 (DTP/NCI, 2004)
Values joined by “and” are separate entries in the source; they are usually repeats but may differ in a detail not shown here. Equal entries are not always repeated. Inconclusive results and toxic doses are left out. How the source made its calls: active means survival T/C of 150% or more; inactive means T/C below 125% in these data.

Test system: P388 leukemia ip, CD2F1 mice, survival T/C
Test: NCI In Vivo Anticancer Drug Screen. Data for tumor model P388 Leukemia (intraperitoneal) in CD2F1 (CDF1) mice
Conditions: endpoint: median survival time, higher = longer survival
In short: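 Mice carrying the transplanted tumor received test compound or vehicle. Survival was recorded in each group, and the value is the treated-group measurement divided by that of the vehicle-treated control group.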

[1] = dose: 50.0 mg/kg/injection, schedule: Q01DX009 (ip), vehicle: saline with Tween-80
[2] = dose: 100.0 mg/kg/injection, schedule: Q01DX009 (ip), vehicle: saline with Tween-80
[3] = dose: 200.0 mg/kg/injection, schedule: Q01DX009 (ip), vehicle: saline with Tween-80
[4] = dose: 12.5 mg/kg/injection, schedule: Q01DX009 (ip), vehicle: saline with Tween-80
[5] = dose: 25.0 mg/kg/injection, schedule: Q01DX009 (ip), vehicle: saline with Tween-80
[6] = dose: 50.0 mg/kg/injection, schedule: Q01DX009 (ip), vehicle: saline
[7] = dose: 100.0 mg/kg/injection, schedule: Q01DX009 (ip), vehicle: saline
[8] = dose: 200.0 mg/kg/injection, schedule: Q01DX009 (ip), vehicle: saline
[9] = dose: 60.0 mg/kg/injection, schedule: Q01DX005 (ip), vehicle: Klucel (hydroxypropylcellulose) (HPC)
[10] = dose: 120.0 mg/kg/injection, schedule: Q01DX005 (ip), vehicle: Klucel (hydroxypropylcellulose) (HPC)
[11] = dose: 240.0 mg/kg/injection, schedule: Q01DX005 (ip), vehicle: Klucel (hydroxypropylcellulose) (HPC)

Measured: T/C

N#Cc1cnn(-c2cccc(Cl)c2)c1-n1cccc1
inactive: [1] 100 % of control | [2] 100 % of control | [3] 93 % of control

CC(C)=NNS(=O)(=O)c1ccccc1
inactive: dose: 6.25 mg/kg/injection, schedule: Q01DX009 (ip), vehicle: Klucel (hydroxypropylcellulose) (HPC) 108 % of control | dose: 12.5 mg/kg/injection, schedule: Q01DX009 (ip), vehicle: Klucel (hydroxypropylcellulose) (HPC) 110 % of control | dose: 25.0 mg/kg/injection, schedule: Q01DX009 (ip), vehicle: Klucel (hydroxypropylcellulose) (HPC) 100 % of control | dose: 50.0 mg/kg/injection, schedule: Q01DX009 (ip), vehicle: Klucel (hydroxypropylcellulose) (HPC) 110 % of control | dose: 100.0 mg/kg/injection, schedule: Q01DX009 (ip), vehicle: Klucel (hydroxypropylcellulose) (HPC) 108 % of control

C=C1C2(CN)CCC(C2)C1(C)C (centres undefined)
inactive: dose: 6.25 mg/kg/injection, schedule: Q01DX009 (ip), vehicle: saline with Tween-80 101 % of control | dose: 12.5 mg/kg/injection, schedule: Q01DX001 (ip), vehicle: saline with Tween-80 96 % of control | [4] 98 % of control | dose: 25.0 mg/kg/injection, schedule: Q01DX001 (ip), vehicle: saline with Tween-80 101 % of control | [5] 98 % of control | dose: 50.0 mg/kg/injection, schedule: Q01DX001 (ip), vehicle: saline with Tween-80 99 % of control

CC(=O)OC1=CC2C(OC1=O)C1C=CC2(OC(C)=O)C(=O)O1 (centres undefined)
inactive: [1] 102 % of control | [2] 104 % of control | [3] 113 % of control

CC(C)C1=CC(=O)C2=C(CCC3C4=C(CCC23C)C(=O)OC4)C1=O (centres undefined)
inactive: dose: 6.25 mg/kg/injection, schedule: Q01DX009 (ip), vehicle: DMSO 105 % of control | dose: 12.5 mg/kg/injection, schedule: Q01DX009 (ip), vehicle: DMSO 113 % of control | dose: 25.0 mg/kg/injection, schedule: Q01DX009 (ip), vehicle: DMSO 98 % of control

O=C1N(C2CCCCC2)C(/C=C/c2ccccc2)C1(c1ccccc1)c1ccccc1 (centres undefined)
inactive: dose: 25.0 mg/kg/injection, schedule: Q01DX005 (ip), vehicle: Klucel (hydroxypropylcellulose) (HPC) 96 % of control | dose: 50.0 mg/kg/injection, schedule: Q01DX005 (ip), vehicle: Klucel (hydroxypropylcellulose) (HPC) 94 % of control | dose: 100.0 mg/kg/injection, schedule: Q01DX005 (ip), vehicle: Klucel (hydroxypropylcellulose) (HPC) 88 % of control | dose: 200.0 mg/kg/injection, schedule: Q01DX005 (ip), vehicle: Klucel (hydroxypropylcellulose) (HPC) 89 % of control and 91 % of control

CNC(=O)C(C(=O)NC)n1cnc(C(=O)OC)c1O
inactive: dose: 60.0 mg/kg/injection, schedule: Q01DX005 (ip), vehicle: water 108 % of control | dose: 120.0 mg/kg/injection, schedule: Q01DX005 (ip), vehicle: water 107 % of control | dose: 240.0 mg/kg/injection, schedule: Q01DX005 (ip), vehicle: water 107 % of control

CC(C)=CCC/C(C)=C/COc1ccc(/C=C2/C(=O)N(O)[C@@H](C)C(=O)N2O)cc1
inactive: dose: 6.25 mg/kg/injection, schedule: Q01DX009 (ip), vehicle: saline 123 % of control and 97 % of control | dose: 12.5 mg/kg/injection, schedule: Q01DX009 (ip), vehicle: saline 99 % of control | dose: 25.0 mg/kg/injection, schedule: Q01DX009 (ip), vehicle: saline 108 % of control

COc1ccc(NC2=CC(=S)NC(C)(C)C2)cc1
inactive: [6] 92 % of control | [7] 104 % of control | [8] 104 % of control

O=C(O)C1Oc2cc3ccccc3cc2O1
inactive: [6] 90 % of control | [7] 90 % of control | [8] 97 % of control

S=c1sc2cccnc2s1
inactive: [4] 99 % of control | [5] 100 % of control | [1] 104 % of control and 111 % of control

c1ccc2c(c1)CCc1c-2n[nH]c1-c1[nH]nc2c1CCc1ccccc1-2
inactive: [9] 99 % of control | [10] 89 % of control | [11] 88 % of control

CCCCCCCC[N+](C)(C)CC#CC[N+](C)(C)CCCCCCCC
inactive: dose: 6.25 mg/kg/injection, schedule: Q04DX003 (ip), vehicle: saline 96 % of control | dose: 12.5 mg/kg/injection, schedule: Q04DX003 (ip), vehicle: saline 103 % of control

CCOc1c(N=Nc2ccc(OC)cc2)c(C)nn1C(=S)S
inactive: [9] 115 % of control | [10] 112 % of control | [11] 100 % of control

Cc1cccc(C)c1Nc1nnc(-c2ccc(N(C)C)cc2)s1
inactive: dose: 60.0 mg/kg/injection, schedule: Q01DX005 (ip), vehicle: saline with Tween-80 86 % of control | dose: 120.0 mg/kg/injection, schedule: Q01DX005 (ip), vehicle: saline with Tween-80 87 % of control
